Where two headings read alike, the source gives them in different places. One block for each compound: values may come before it.
What was measured:
wound [1] = details: healthy BALB/C mice; cited from earlier work
[2] = Systemic absorption in patients (plasma HPLC/MS/MS assay); format: in vivo, human; details: any topical dose concentration (5, 50, 500 μg/g), initial, day 16 and day 28, LLOQ 1.0 ng/mL
Source text: (§1) Testing of concentrations of 2-[2-(4-Chlorophenyl)ethoxy]adenosine in blood plasma: 2-[2-(4-Chlorophenyl)ethoxy]adenosine concentrations in blood plasma taken from a patient may be quantitated. A non-limiting example of an assay to quantitate 2-[2-(4-Chlorophenyl)ethoxy]adenosine in blood plasma is an HPLC/MS/MS bioanalytical assay. The assay used an organic precipitation of protein accomplished with addition of acetonitrile to plasma followed by a thorough mixing and centrifugation to separate the denatured protein and supernatant. Aliquots of the supernatant were injected onto a HPLC system equipped with a triple quadrapole mass spectrometer which provided highly specific and sensitive detection of the molecular ion of interest. Concentrations of 2-[2-(4-Chlorophenyl)ethoxy]adenosine were determined from peak area ratios of 2-[2-(4-Chlorophenyl)ethoxy]adenosine and the internal standard using weighted linear regression curves (1/×). The assay was highly robust and reproducible within the validated range of 1.0 to 100 ng/mL.
2-[2-(4-Chlorophenyl)ethoxy]adenosine was administered to patients with chronic, neuropathic, diabetic foot ulcers (DFU). […]

[3] = Toxicokinetics after topical application on full-thickness wounds in minipigs; format: in vivo, Gottingen SPF minipigs; details: for AUC(0-t) / Cmax / half-life / Tmax: Gottingen SPF, minipig, plasma, topical or ocular, 2000 ug/day, topical 2000 μg/day (500 μg/g Gel), Day 6; for AUC(0-t): read-out: AUC24 h (Mean ± CV); for Cmax: read-out: Cmax (Mean ± CV); for half-life: read-out: T1/2 (Mean ± CV) (converted); for Tmax: read-out: Tmax (Mean ± CV)
Source text: as §1
The objective of this study was to assess the local and the systemic toxicity of the 2-[2-(4-chlorophenyl)ethoxy]adenosine formulation of the instant invention. The testing occurred in Gottingen SPF minipigs. 20 μg/g, 100 μg/g and 500 μg/g concentration of the 2-[2-(4-chlorophenyl)ethoxy]adenosine formulation were created using the methods described in Example I. The 20 μg/g and 100 μg/g formulation are described below. The components of the 500 μg/g formulation and the placebo control were as described in Example 1.
The total dosage of 2-[2-(4-chlorophenyl)ethoxy]adenosine per minipig ranged from 80 μg to 2000 μg/day. The formulation was administered topically once per day in 1 mL (1 g) doses at 20 μg/g, 100 μg/g and 500 μg/g concentration per wound per administration on surgically established full-thickness wounds until wound closure. Each minipig had multiple (4) wounds that received treatment.
A total of 40 Gottingen SPF minipigs (20 males and 20 females) were included in the study. The animals were allocated into four groups each of 4 males and 4 females. In addition, 4 animals (2 of each sex per group), were included as recovery animals for the control/placebo group (Group 1) and the high-dose group (Group 4).
From Day 1 through Day 13, 2-[2-(4-chlorophenyl)ethoxy]adenosine formulation at either 20 μg/g, 100 μg/g or 500 μg/g concentration was applied topically on surgically established circular full-thickness wounds (wound diameter 20 mm; 4 wounds per animal) on a daily basis in a dose volume of approximately 1 mL per wound until wound closure. The dose levels and animal numbers are provided Table 20.
Toxicokinetic sampling occurred on Day 6 at the following time points: pre-treatment, and 0.5, 1, 3, 5, 7, 9, 12 and 24 hours post-treatment. […] Non-compartmental pharmacokinetic analysis of plasma 2-[2-(4-chlorophenyl)ethoxy]adenosine concentration profiles in Groups 2, 3, and 4 (low-, mid- and high-dose) animals yielded pertinent pharmacokinetic parameters, which are summarized by treatment and gender in Table 20.

wound [4] = details: rats; cited from earlier work

systemic absorption (blood plasma, HPLC/MS/MS assay) [2]: No systemic absorption
Structure (SMILES): Nc1nc(OCCc2ccc(Cl)cc2)nc2c1ncn2[C@@H]1O[C@H](CO)[C@@H](O)[C@H]1O [2-[2-(4-chlorophenyl)ethoxy]adenosine]
wound healing (wound [1]): promote wound healing | AUC(0-t) ([3]; Female minipigs): 6.65 ng·h/mL | Cmax ([3]; Female minipigs): 0.45 ng/mL | half-life ([3]; Female minipigs): 28.4 h | Tmax ([3]; Female minipigs): 7.5 h | AUC(0-t) ([3]; Male minipigs): 7.25 ng·h/mL | Cmax ([3]; Male minipigs): 0.46 ng/mL | half-life ([3]; Male minipigs): 122 h | Tmax ([3]; Male minipigs): 7.8 h | absorption into the systemic circulation from topical administration in open wounds ([3]; minipigs, wound healing phase, 80-2000 μg/day): minimal

Structure (SMILES): CCNC(=O)[C@H]1O[C@@H](n2cnc3c(N)nc(NCCc4ccc(CCC(=O)O)cc4)nc32)[C@H](O)[C@@H]1O [CGS 21680, 2-[p-(carboxyethyl)phenylethylamino]-5′-N-ethylcarboxamidoadenosine]
rate of wound closure (wound [4]): increase the rate of wound closure

From patent publication US20110144027A1, “PHARMACEUTICAL COMPOSITIONS FOR PROMOTING WOUND HEALING” (priority 2006, published 2011)
